In US4695552A, “Process and reagent for the determination of the hemoglobin-haptoglobin complex in the presence of free hemoglobin” (Boehringer Mannheim GmbH, priority 1983, dated 1987):

What was measured:
Type in all cases: biochemical
[1] = biological target: T1, free hemoglobin (Hb) (Homo sapiens, UniProt P68871+P69905); experiment: Peroxidase reaction of free hemoglobin with perborate and ABTS as substrate, with detergent added; details: ABTS 0.5 mmol/l., pH 3.8, 0.25 mg. Hb/ml.
Description: (§1) 2 ml. of a reagent solution containing 0.1 mol/liter of sodium citrate buffer (pH 3.8) and 0.5 mmol/liter ABTS are mixed with 0.025 ml. of a sample solution which contains free hemoglobin or the hemoglobin-haptoglobin complex with a hemoglobin concentration of 0.25 mg. Hb/ml. The peroxidase reaction is started with 0.020 ml. of 0.58 molar sodium perborate solution in 0.15 molar citric acid and the color development is monitored by extinction measurement at 436 nm. The reaction temperature is 25° C.
(§2) Analogous measurements are carried out in which, in addition to the above-mentioned components, there are added to the reagent solution the detergents mentioned in the following Table 3 in the concentrations there also given.

[2] = biological target: T2, hemoglobin haptoglobin complex (Hb:Hp) (Homo sapiens, UniProt P68871+P69905); experiment: Peroxidase reaction of hemoglobin-haptoglobin complex with perborate and ABTS as substrate, with detergent added; details: ABTS 0.5 mmol/l., pH 3.8
T2 sequence (P69905 2-142 limits assumed): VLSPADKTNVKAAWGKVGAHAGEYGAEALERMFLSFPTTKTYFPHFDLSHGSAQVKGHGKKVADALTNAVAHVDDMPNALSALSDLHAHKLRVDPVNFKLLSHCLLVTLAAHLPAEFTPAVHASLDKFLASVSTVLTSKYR
T2 sequence (P68871 2-147 limits assumed): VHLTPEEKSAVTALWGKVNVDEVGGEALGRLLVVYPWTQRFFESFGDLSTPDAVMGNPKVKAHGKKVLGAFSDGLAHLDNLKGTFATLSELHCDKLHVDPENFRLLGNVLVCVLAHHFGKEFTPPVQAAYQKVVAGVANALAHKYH
T2 sequence (P00738 162-406 partner limits assumed): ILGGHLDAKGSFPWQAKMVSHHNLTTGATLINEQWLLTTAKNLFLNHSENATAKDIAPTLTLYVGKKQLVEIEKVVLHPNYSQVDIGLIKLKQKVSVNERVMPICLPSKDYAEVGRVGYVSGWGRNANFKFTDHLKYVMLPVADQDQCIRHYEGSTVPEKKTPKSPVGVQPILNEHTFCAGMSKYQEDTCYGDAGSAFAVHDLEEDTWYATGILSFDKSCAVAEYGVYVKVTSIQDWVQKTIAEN
Description: as §1, §2

[3] = biological target: T1, free hemoglobin (Hb); experiment: Peroxidase reaction of free hemoglobin with peroxide and guaiacol as substrate, with detergent added; details: digitonin 0.5 mg./ml.; guaiacol 30 mmol/l.; pH 4.0; 0.25 mg. Hb/ml.
Description: (§3) 2 ml. of a reagent solution containing 0.1 mol/liter of sodium acetate buffer (pH 4.0) and 30 or 15 mmol/liter of guaiacol are mixed with 0.05 ml. of a sample solution which contains free hemoglobin or a hemoglobin-haptoglobin complex with a hemoglobin concentration of 0.25 mg. Hb/ml. The peroxidase reaction is started with 0.1 ml. of 0.58 molar sodium perborate solution in 0.15 molar citric acid and the color development is monitored by extinction measurement at 436 nm. The reaction temperature is 25° C. After a certain time, the color development comes to a stop. Because of the instability of the colored material, the extinction again decreases. The extinction changes given in the following Table 4 are the initial velocities determined by plotting the tangents on the extinction-time curves.
(§4) Analogous measurements are carried out in which, to the reagent solution, there has been added, in each case, one of the detergents given in Table 4 in the there-given concentration.

[4] = biological target: T2, hemoglobin haptoglobin complex (Hb:Hp); experiment: Peroxidase reaction of hemoglobin-haptoglobin complex with peroxide and guaiacol as substrate, with detergent added; details: digitonin 0.5 mg./ml.; guaiacol 30 mmol/l.; pH 4.0
Description: as §3, §4

T1 sequence (P69905 2-142 limits assumed): as the sequence (P69905 2-142 limits assumed) above
T1 sequence (P68871 2-147 limits assumed): as the sequence (P68871 2-147 limits assumed) above

Compound: C[C@@H]1CC[C@@]2(OC1)O[C@H]1[C@@H](O)[C@H]3[C@@H]4CC[C@H]5C[C@@H](O[C@@H]6O[C@H](CO)[C@H](O[C@@H]7O[C@H](CO)[C@@H](O)[C@H](O[C@@H]8OC[C@@H](O)[C@H](O)[C@H]8O)[C@H]7O[C@@H]7O[C@H](CO)[C@H](O)[C@H](O[C@@H]8O[C@H](CO)[C@@H](O)[C@H](O)[C@H]8O)[C@H]7O)[C@H](O)[C@H]6O)[C@H](O)C[C@]5(C)[C@H]4CC[C@]3(C)[C@H]1[C@@H]2C [digitonin]
- ΔE/min. Hb ([1]; digitonin 0.15 mg./ml.): 21.8 mE/min.
- ΔE/min. Hb ([1]; digitonin 0.3 mg./ml.): 20 mE/min.
- Hb:Hp / Hb ([2]; digitonin 0.15 mg./ml.): 37.6
- ΔE/min. Hb:Hp ([2]; digitonin 0.15 mg./ml.): 818 mE/min.
- Hb:Hp / Hb ([2]; digitonin 0.3 mg./ml.): 41
- ΔE/min. Hb:Hp ([2]; digitonin 0.3 mg./ml.): 818 mE/min.
- ΔE/min. Hb [3]: 3 mE/min.
- Hb:Hp / Hb [4]: 50
- ΔE/min. Hb:Hp [4]: 154 mE/min.
